The results in this text go back to paper PMC9225715, “Development of PD3 and PD3-B for PDEδ inhibition to modulate KRAS activity” (Journal of Enzyme Inhibition and Medicinal Chemistry, 2022).

Usually Kd stands for the free concentration of one partner at which half of the binding sites on the other are occupied at equilibrium, for simple one-to-one binding.

For one assay, the target named is T1, PDEδ (Homo sapiens, UniProt O43924).
T1 construct: made in house; host or cells: E. coli BL21(DE3)
Briefly: Fluorescence polarisation (FP)-based binding assay. The protocol:
To evaluate the binding affinities of PDs to PDEδ, we also carried out a fluorescence polarisation (FP)-based binding assay after incubation of PDs with PDEδ. […] In the presence of 0.5 µM PD compounds, the polarisation value (mP value) increased following treatment with purified PDEδ in a dose-dependent manner until treatment with excess PDEδ induced saturation of binding. Among the tested compounds, 8 compounds were selected for further evaluation and SAR analysis. The binding curves for the selected 8 compounds are shown with their Kd values in Supplemental Figure S3.
Figure 3. Binding affinities of PDs measured by fluorescence polarisation. (A) Representative binding curve of PDs (PD3) titrated with PDEδ. The FP value was measured in PBS buffer (pH 7.2) containing 8 concentrations (0, 0.5, 1, 2, 4, 8, 16 and 32 μM) of PDEδ mixed with 0.5 μM PDs. Ex: 440 nm, Em: 526 nm; (B) Kd value and half-life of each compound; (C, D) Kinetic trace of PD3 and PD7 in the competition assay. PD3 was shown as a compound with the longest retention time (slow dissociation), whereas PD7 was shown as a compound with the shortest retention time (fast dissociation). The half-life was obtained by a competition binding assay using excess deltarasin. The optimal concentration of PDEδ for the competition assay was determined using the Kd value and PD concentration (0.5 μM) for making more than 68% of the binding complex. Ex: 430 nm, Em: 520 nm. TEXT PRINTED IN THE PICTURE: (A) PD3: Best-fit values Bmax: 261.7; Best-fit values Kd: 0.4991; Std. Error Bmax: 17.98; Std. […] Error Bmax 17.98 (last digit 8 or 6) and Std. Error Kd 0.1956 (5 and 6 not certain) / Panels C and D: k and half-life are printed without a label of their own; assigned to PD3 and PD7 from the panel legends (PDEδ+PD3+Del, PDEδ+PD7+Del)
PDEδ was diluted to make a series of two-fold dilutions with a starting concentration of 32 µM. The diluted solution was mixed with PBS buffer [137 mM NaCl, 2.7 mM KCl, 10 mM Na2HPO4, 2 mM KH2PO4 (pH 7.2)] and then the mixture was loaded on a 96 well black plate (SPL life Science, Gyeonggi-do, Republic of Korea). Compounds were transferred to the wells of assay plate and the final concentration of compounds was fixed to 0.5 µM. After the addition of the compound, the assay plates were incubated for 2 h at 4 °C. FP values were detected by SpectraMax M5 microplate reader (Molecular Devices, San Jose, CA) at the maximum absorption and emission wavelengths of PD compounds in assay buffer. Kd values were determined by previously reported method.

Another assay concerns PANC-1 cells. Briefly: Immunofluorescence staining of RAS localisation. Type of assay: cell-based, human. To be noted: 18 h, anti-pan RAS antibody, PD3 10 µM, deltarasin 2, 5, 10 µM. The text has this: Finally, we investigated whether PD3 changes KRAS localisation by inhibiting the interaction of KRAS with PDEδ in human pancreatic cancer cells. PDEδ binds the farnesylated RAS proteins and stabilises them[19]. Therefore, PDEδ activity leads to the accumulation of RAS at the plasma membrane (PM); conversely, downmodulation of PDEδ enhances RAS diffusion in the cytoplasm. To confirm the effect of PD3 on the relocalization of RAS, we carried out immunofluorescence staining of PANC-1 cells with an anti-RAS antibody (Figure 6). […] Conversely, in the DMSO-treated control group, RAS was mainly localised in the PM of PANC-1 cells. […] It is supposed that PD3 can induce changes in RAS localisation from the plasma membrane by interrupting the protein–protein interaction of KRAS-PDEδ.
Figure 6. Immunofluorescence of PANC-1 cells with an anti-Pan-RAS antibody (red). DMSO was used as a negative control, and deltarasin was used as a positive control. Ex: 633 nm, Em: ≥638 nm. The scale bar represents 20 µm.
PANC-1 cells were seeded with cover slip in a 6-well cell culture plate (SPL life Science, Gyeonggi-do, Republic of Korea) and incubated for 24 h under 37 °C and 5% CO2 prior to the experiment. […] The fluorescence images were detected by confocal microscope (TCS-SP8 confocal laser scanning microscope, Leica, Germany). Fluorescence signal was obtained by excitation at 633 nm and emission at ≥638 nm.

Like-named read-outs stand apart in the source and are kept apart here.

T1 sequence (O43924 whole entry): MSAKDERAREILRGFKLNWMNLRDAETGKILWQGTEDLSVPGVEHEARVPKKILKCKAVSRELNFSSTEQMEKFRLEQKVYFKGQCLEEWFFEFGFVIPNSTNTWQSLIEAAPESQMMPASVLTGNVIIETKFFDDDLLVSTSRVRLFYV

Regarding `Cc1ccc(-c2nc3ccccc3c3cc4ccccn4c23)cc1` [PD3, 6-(p-tolyl)indolizino[3,2-c]quinoline], the Kd on PDEδ (0.5 µM PD titrated with PDEδ, PBS pH 7.2, mean ± SD of three independent experiments, read-out: Kd value) worked out at 491 ± 12 nM; on PDEδ (representative binding curve, Figure 3(A) inset, read-out: Best-fit values Kd), 499 nM. Moreover, the “RAS localisation at the plasma membrane (PM)” value with PANC-1 cells is given as “red fluorescence was effectively reduced at the PM”.
